# Experimental data published in patent US9579319B2 (Redx Pharma PLC, priority 2013, dated 2017).
# Test system: Hedgehog signalling pathway
# Assay: Gli-reporter NIH3T3 luciferase assay (Hedgehog pathway inhibition)
# Type: cell-based
# Settings: NIH3T3; Gli-reporter NIH-3T3 cells, recombinant mouse sonic hedgehog, 24 hours, luminescence; read-out: Category (Hedgehog pathway inhibition activity, IC50)
# Procedure, shortened: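 Mouse NIH3T3 cells with Gli-responsive luciferase reporter, pre-treated 1 h with compound (top final concentration 1 μM, 0.1% DMSO) in 0.5% calf serum medium. Then stimulated with recombinant mouse sonic hedgehog for 24 h at 37° C. Luminescence read-out (OneGLO), triplicates; IC50 reported.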
row,Structure (SMILES),IC50
1,"Cn1nccc1-c1nnc(N2CCC(NCc3ccc(F)cc3Cl)CC2)c2ccccc12 [Example 19, N-[(2-chloro-4-fluoro-phenyl)methyl]-1-[4-(2-methylpyrazol-3-yl)phthalazin-1-yl]piperidin-4-amine]",10 to 200 nM
2,"Cn1nccc1-c1nnc(N2CCC(NC(=O)Nc3cccc(C#N)c3)CC2)c2ccccc12 [Example 22, 1-(3-cyanophenyl)-3-[1-[4-(2-methylpyrazol-3-yl)phthalazin-1-yl]-4-piperidyl]urea]",< 10 nM
3,"Cn1nccc1-c1nnc(N2CCC(NC(=O)Nc3ccc(OC(F)F)cc3)CC2)c2ccccc12 [Example 26, 1-[4-(difluoromethoxy)phenyl]-3-[1-[4-(2-methylpyrazol-3-yl)phthalazin-1-yl]-4-piperidyl]urea]",< 10 nM
4,"COc1ccc(NC(=O)NC2CCN(c3nnc(-c4ccnn4C)c4ccccc34)CC2)cc1 [Example 45, 1-(4-methoxyphenyl)-3-[1-[4-(2-methylpyrazol-3-yl)phthalazin-1-yl]-4-piperidyl]urea]",10 to 200 nM
5,"Cn1nccc1-c1nnc(N2CCC(NS(=O)(=O)c3ccc(F)cc3C(F)(F)F)CC2)c2ccccc12 [Example 50, 4-fluoro-N-[1-[4-(2-methylpyrazol-3-yl)phthalazin-1-yl]-4-piperidyl]-2-(trifluoromethyl)benzenesulfonamide]",< 10 nM
6,"CSc1ccccc1CN(C)C1CCN(c2nnc(-c3ccnn3C)c3ccccc23)CC1 [Example 28, N-methyl-1-[4-(2-methylpyrazol-3-yl)phthalazin-1-yl]-N-[(2-methylsulfanylphenyl)methyl]piperidin-4-amine]",< 10 nM
7,"Cn1nccc1-c1nnc(N2CCC(NCc3ccc(F)cc3F)CC2)c2ccccc12 [Example 74, N-[(2,4-difluorophenyl)methyl]-1-[4-(2-methylpyrazol-3-yl)phthalazin-1-yl]piperidin-4-amine]",200 to 2000 nM
8,"Cn1nccc1-c1nnc(N2CCC(NCc3ccc(Cl)cc3)CC2)c2ccccc12 [Example 35, N-[(4-chlorophenyl)methyl]-1-[4-(2-methylpyrazol-3-yl)phthalazin-1-yl]piperidin-4-amine]",10 to 200 nM
9,"Cn1nccc1-c1nnc(N2CCC(NCc3ccccc3F)CC2)c2ccccc12 [Example 72, N-[(2-fluorophenyl)methyl]-1-[4-(2-methylpyrazol-3-yl)phthalazin-1-yl]piperidin-4-amine]",10 to 200 nM
10,"Cn1nccc1-c1nnc(N2CCC(NCc3ccc(F)nc3F)CC2)c2ccccc12 [Example 76, N-[(2,6-difluoro-3-pyridyl)methyl]-1-[4-(2-methylpyrazol-3-yl)phthalazin-1-yl]piperidin-4-amine]",10 to 200 nM
11,"Cn1nccc1-c1nnc(N2CCC(NCc3cccc(F)c3)CC2)c2ccccc12 [Example 73, N-[(3-fluorophenyl)methyl]-1-[4-(2-methylpyrazol-3-yl)phthalazin-1-yl]piperidin-4-amine]",10 to 200 nM
12,"Cn1nccc1-c1nnc(N2CCC(NC(=O)Nc3ccccc3C(F)(F)F)CC2)c2ccccc12 [Example 21, 1-[1-[4-(2-methylpyrazol-3-yl)phthalazin-1-yl]-4-piperidyl]-3-[2-(trifluoromethyl)phenyl]urea]",< 10 nM
13,"Cn1nccc1-c1nnc(N2CCC(NCc3ccc(F)cc3C(F)(F)F)CC2)c2ccccc12 [Example 79, N-[[4-fluoro-2-(trifluoromethyl)phenyl]methyl]-1-[4-(2-methylpyrazol-3-yl)phthalazin-1-yl]piperidin-4-amine]",< 10 nM
14,"CN(C1CCN(c2nnc(-c3ccnn3C)c3ccccc23)CC1)S(=O)(=O)c1ccc(F)cc1C(F)(F)F [Example 48, 4-fluoro-N-methyl-N-[1-[4-(2-methylpyrazol-3-yl)phthalazin-1-yl]-4-piperidyl]-2-(trifluoromethyl)benzenesulfonamide]",< 10 nM

# Same assay, conditions: NIH3T3; Gli-reporter NIH-3T3 cells, recombinant mouse sonic hedgehog, 24 hours, luminescence; read-out: Gli Luc nM (IC50)
row,Structure (SMILES),IC50
1,"Cn1nccc1-c1nnc(N2CCC(NS(=O)(=O)c3ccc(F)cc3C(F)(F)F)CC2)c2ccccc12 [Example 50, 4-fluoro-N-[1-[4-(2-methylpyrazol-3-yl)phthalazin-1-yl]-4-piperidyl]-2-(trifluoromethyl)benzenesulfonamide]",1.79 nM
2,"Cn1nccc1-c1nnc(N2CCC(NCc3ccc(F)cc3C(F)(F)F)CC2)c2ccccc12 [Example 79, N-[[4-fluoro-2-(trifluoromethyl)phenyl]methyl]-1-[4-(2-methylpyrazol-3-yl)phthalazin-1-yl]piperidin-4-amine]",7.85 nM

# Same assay, conditions: NIH3T3; Gli-reporter NIH-3T3 cells, recombinant mouse sonic hedgehog, 24 hours, luminescence; read-out: Gli luc IC50
row,Structure (SMILES),IC50
1,"Cn1nccc1-c1nnc(N2CCC(N(Cc3ccc(F)cc3C(F)(F)F)C3CC3)CC2)c2ccccc12 [Example 94, N-cyclopropyl-N-[[4-fluoro-2-(trifluoromethyl)phenyl]methyl]-1-[4-(2-methylpyrazol-3-yl)phthalazin-1-yl]piperidin-4-amine]",> 200 nM
2,"Cn1nccc1-c1nnc(N2CCC(NCc3ccc(F)nc3C(F)(F)F)CC2)c2ccccc12 [Example 165, N-[[6-fluoro-2-(trifluoromethyl)-3-pyridyl]methyl]-1-[4-(2-methylpyrazol-3-yl)phthalazin-1-yl]piperidin-4-amine]",10 to 200 nM
3,"Cc1c(-c2ccnn2C)nnc(N2CCC(N(C)Cc3ccccc3C(C)C)CC2)c1C [Example 82, 1-[4,5-dimethyl-6-(2-methylpyrazol-3-yl)pyridazin-3-yl]-N-[(2-isopropylphenyl)methyl]-N-methyl-piperidin-4-amine]",10 to 200 nM
4,"COc1ccc(-c2nnc(N3CCC(NCc4ccc(F)cc4C(F)(F)F)CC3)c(C)c2C)cn1 [Example 120, N-[[4-fluoro-2-(trifluoromethyl)phenyl]methyl]-1-[6-(6-methoxy-3-pyridyl)-4,5-dimethyl-pyridazin-3-yl]piperidin-4-amine]",10 to 200 nM
5,"Cc1cc(-c2nnc(N3CCC(NS(=O)(=O)c4ccc(F)cc4C(F)(F)F)CC3)c(C)c2C)ccn1 [Example 118, N-[1-[4,5-dimethyl-6-(2-methyl-4-pyridyl)pyridazin-3-yl]-4-piperidyl]-4-fluoro-2-(trifluoromethyl)benzenesulfonamide]",> 200 nM
6,"COc1ccc(-c2nnc(N3CCC(N(C)Cc4ccc(F)cc4C(F)(F)F)CC3)c(C)c2C)cn1 [Example 110, N-[[4-fluoro-2-(trifluoromethyl)phenyl]methyl]-1-[6-(6-methoxy-3-pyridyl)-4,5-dimethyl-pyridazin-3-yl]-N-methyl-piperidin-4-amine]",10 to 200 nM
7,"CN(Cc1ccc(F)cc1Cl)C1CCN(c2nnc(-c3ccnn3C)c3ccccc23)CC1 [Example 158, N-[(2-chloro-4-fluoro-phenyl)methyl]-N-methyl-1-[4-(2-methylpyrazol-3-yl)phthalazin-1-yl]piperidin-4-amine]",10 to 200 nM
8,"Fc1ccc(CNC2CCN(c3nnc(N4CCOCC4)c4ccccc34)CC2)c(C(F)(F)F)c1 [Example 145, N-[[4-fluoro-2-(trifluoromethyl)phenyl]methyl]-1-(4-morpholinophthalazin-1-yl)piperidin-4-amine]",> 200 nM
9,"Cc1c(-c2ccnn2C)nnc(N2CCC(N(C)C(=O)Nc3ccc(F)cc3F)CC2)c1C [Example 127, 3-(2,4-difluorophenyl)-1-[1-[4,5-dimethyl-6-(2-methylpyrazol-3-yl)pyridazin-3-yl]-4-piperidyl]-1-methyl-urea]",> 200 nM
10,"CN(C1CCN(c2nnc(-c3ccnn3C)c3cccnc23)CC1)S(=O)(=O)c1ccc(F)cc1C(F)(F)F [Example 134, 4-fluoro-N-methyl-N-[1-[5-(2-methylpyrazol-3-yl)pyrido[2,3-d]pyridazin-8-yl]-4-piperidyl]-2-(trifluoromethyl)benzenesulfonamide]",10 to 200 nM
11,"CC(NC1CCN(c2nnc(-c3ccnn3C)c3ccccc23)CC1)c1ccc(F)cc1C(F)(F)F (stereo not drawn) [Example 143, N-[1-[4-fluoro-2-(trifluoromethyl)phenyl]ethyl]-1-[4-(2-methylpyrazol-3-yl)phthalazin-1-yl]piperidin-4-amine]",10 to 200 nM
